Measured values taken from article PMC13360702, “An Agonist/Antagonist Photo‐Switchable Vitamin D Mimetic Enables Bidirectional Optical Control of VDR” (Angewandte Chemie (International Ed. in English), 2026).
Where two headings read alike, the source gives them in different places.

What was measured:
VDR [1] = target: T1, VDR (Homo sapiens, UniProt P11473); experiment: Gal4‐VDR hybrid reporter gene assay, antagonist mode (vs. 0.3 µM calcitriol (2)); format: cell-based; conditions: dark‐adapted (E)‐state; vs. 0.3 µM 2 (calcitriol); read-out: VDR modulation dark (E): IC50 (antagonist mode)
T1 construct: -CMV-VDR-LBD coding for the hinge region and; expressed in transfected cells; host or cells: HEK293T
T1 sequence (P11473 127-423 limits assumed): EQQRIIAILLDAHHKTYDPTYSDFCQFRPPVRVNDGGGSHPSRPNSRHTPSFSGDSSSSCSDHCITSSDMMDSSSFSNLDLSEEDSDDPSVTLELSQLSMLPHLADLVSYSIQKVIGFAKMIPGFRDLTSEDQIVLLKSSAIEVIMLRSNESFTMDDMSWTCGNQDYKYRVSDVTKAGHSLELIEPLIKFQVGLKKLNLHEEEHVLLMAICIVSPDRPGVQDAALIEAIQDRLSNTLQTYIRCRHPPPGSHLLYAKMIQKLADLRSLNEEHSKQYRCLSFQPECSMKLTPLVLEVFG
Description: (§1) FIGURE 2 Development and characterization of the light‐activated vitamin D mimetic photo‐vitD (10). (a) Structure activity relationship of photo‐switchable VDR agonists 4–10. Compounds were tested in a cellular Gal4‐VDR hybrid reporter gene assay. Relative activation is normalized to the effect of 2 (1 µM) set as 100% activation. The (Z)‐states of the compounds were maintained with a Cell‐Disco [24] (370 nm). […] Data in agonist (EC50) and antagonist mode (IC50; vs. 0.3 µM 2) are shown for (E)‐ and (Z)‐10. The corresponding dose‐response curves are shown in (d). (b) Predicted binding mode of (E)‐7 (green) in the VDR ligand binding site (pdb ID 4g1d). […] (c) Predicted binding mode of (Z)‐10 (yellow) in the VDR ligand binding site. The altered regiochemistry conveys strong preference for the light‐induced (Z)‐configuration and the extended naphthoic acid motif enables a strong ionic contact to R302. (d) Dose‐response curves of (E)‐ (dark) and (Z)‐10 (370 nm) in the Gal4‐VDR reporter gene assay in agonist (top) and antagonist mode (bottom, with 0.3 µM calcitriol (2)). (Z)‐10 activated VDR; (E)‐10 and (Z)‐10 antagonized VDR activation by 0.3 µM calcitriol (2). (Z)‐10 was maintained with a Cell‐Disco [24] (370 nm). […] Absorbance was measured at 351 nm with a 25 µM solution in DMSO, one cycle is 30 sec. […] (E)/(Z) ratios were measured by NMR. […]

[2] = photophysical characterization (photo‐switching, thermal relaxation); format: physicochemical; conditions: alternating irradiation at 365 and 465 nm; 25 µM solution in DMSO
Description: as §1

VDR [3] = target: T1, VDR; experiment: Gal4‐VDR hybrid reporter gene assay, agonist mode; format: cell-based; conditions: HEK293T cells, mean±S.E.M., n≥3
Description: FIGURE 2 Development and characterization of the light‐activated vitamin D mimetic photo‐vitD (10). (a) Structure activity relationship of photo‐switchable VDR agonists 4–10. Compounds were tested in a cellular Gal4‐VDR hybrid reporter gene assay. Relative activation is normalized to the effect of 2 (1 µM) set as 100% activation. The (Z)‐states of the compounds were maintained with a Cell‐Disco [24] (370 nm). […] Data in agonist (EC50) and antagonist mode (IC50; vs. 0.3 µM 2) are shown for (E)‐ and (Z)‐10. The corresponding dose‐response curves are shown in (d). (b) Predicted binding mode of (E)‐7 (green) in the VDR ligand binding site (pdb ID 4g1d). […] (c) Predicted binding mode of (Z)‐10 (yellow) in the VDR ligand binding site. The altered regiochemistry conveys strong preference for the light‐induced (Z)‐configuration and the extended naphthoic acid motif enables a strong ionic contact to R302. (d) Dose‐response curves of (E)‐ (dark) and (Z)‐10 (370 nm) in the Gal4‐VDR reporter gene assay in agonist (top) and antagonist mode (bottom, with 0.3 µM calcitriol (2)). (Z)‐10 activated VDR; (E)‐10 and (Z)‐10 antagonized VDR activation by 0.3 µM calcitriol (2). (Z)‐10 was maintained with a Cell‐Disco [24] (370 nm). Data are the mean±S.E.M. relative VDR act. vs. 0.3 µM calcitriol (2), n≥3. (e) Activity profile of 10 (1 µM) on nuclear receptors showing exclusive VDR activation by the light‐activated state. 10 was tested in a panel of uniform Gal4‐NR hybrid reporter gene assays. (Z)‐10 was maintained with a Cell‐Disco [24] (370 nm). Data are the mean±SD, n = 3. (f) Representative UV/Vis spectra of 10 as (E)‐ (dark) and (Z)‐states (PSS 365 nm), and after switching back to (E) with 465 nm. (g) (E)/(Z)‐ratios of 10 in the dark‐adapted state, after illumination at 365 nm for 5 min and after switching back from mostly‐(Z) with 465 nm for 5 min. (h) 10 could be rapidly and reversibly switched between the (E)‐ and (Z)‐states over multiple cycles by alternating irradiation at 365 and 465 nm. Absorbance was measured at 351 nm with a 25 µM solution in DMSO, one cycle is 30 sec. […] 10 was pre‐illuminated at 365 nm for 30 min and then kept in the dark. (E)/(Z) ratios were measured by NMR. (j) Binding mode prediction of (E)‐ and (Z)‐10 to the VDR‐antagonist complex 2zxm (residues numbered according to [21]). (Z)‐10 (yellow) forms an agonist‐like binding mode with several polar interactions at both ends of the pocket. (E)‐10 (cyan) is also anchored at the distal end of the pocket by an H‐bond network with R302 and the D176 backbone but due to the (E)‐configuration, the β‐naphthoic acid residue protrudes deeper and the pentan‐3‐ol motif rotates away from H333/H423. Therefore, (E)‐10 lacks stabilizing/activating contacts with the H333/H423 region rationalizing its antagonist properties.
Gal4-hybrid reporter gene assays. Reporter gene assays were performed in HEK293T cells (German Collection of Microorganisms and Cell Culture GmbH, DSMZ) as reported previously using Gal4 -NR LBD fusion receptor plasmids each coding for the hinge region and LBD of the canonical isoform of the respective human nuclear receptor.[7,8] pFR-Luc (Stratagene, La Jolla, CA, USA) served as a reporter plasmid and pRL-SV40 (Promega, Madison, WI, USA) was used for normalization of transfection efficiency and test compound toxicity. Cells were cultured in Dulbecco’s modified Eagle’s medium (DMEM), high glucose supplemented with 10% fetal calf serum (FCS), sodium pyruvate (1 mM), penicillin (100 U/mL), and streptomycin (100 μg/mL) at 37 °C and 5% CO2, and seeded in 96-well plates (3 × 10^4 cells/well). After 24 h, the medium was changed to Opti -MEM without supplements, and cells were transiently transfected using Lipofectamine LTX reagent (Invitrogen, Carlsbad, CA, USA) according to the manufacturer’s protocol. Five hours after transfection, cells were incubated with the test compounds […]

[4] = system: nuclear receptors related to VDR; experiment: panel of uniform Gal4‐NR hybrid reporter gene assays (selectivity); format: cell-based, human; conditions: 1 µM; both (E)‐ and (Z)‐configuration; (Z) maintained with Cell‐Disco (370 nm)
Description: as §1

With `CCCc1cc(C(O)(CC)CC)ccc1-c1ccc(/N=N/c2ccc3cc(C(=O)O)ccc3c2)cc1C` [compound 10] the IC50 (VDR [1]) was 600 ± 100 nM, the “reversible switching between (E)‐ and (Z)‐states over multiple cycles” value [2] was “no fatigue” and the EC50 (VDR [3]; (Z)‐state maintained with Cell‐Disco (370 nm), read-out: VDR modulation light-activated (Z): EC50) was 170 nM. For the same compound, the EC50 (VDR [3]; dark‐adapted (E)‐state, read-out: VDR modulation dark (E): EC50) was > 10000 nM and the “activity on nuclear receptors related to VDR” value [4] was “no activity”.
